Assay results as given in patent US20070224593A1 (priority 2005, published 2007).

Columns and labels:
[1] = target: non-amyloid or pre-amyloid PrP-d (Ovis aries, UniProt P23907); type: binding; settings: such compounds were previously believed to associate only with classical amyloid PrP-d isoforms
PrP-d = PrP-d (Ovis aries, UniProt P23907); type: binding; settings: same section of unfixed lymphoid tissue from scrapie positive sheep
[2] = target: scrapie-form prion protein (PrP-d) (Ovis aries, UniProt P23907); settings: retropharyngeal lymph nodes of TSE+ sheep, ex vivo; 100 μM, 10 min, RT; λex approx. 370 nm, λem approx. 450 nm; TSE status confirmed by PrP-d immunohistochemistry
Chain of scrapie-form prion protein (PrP-d) (P23907 25-233 limits assumed): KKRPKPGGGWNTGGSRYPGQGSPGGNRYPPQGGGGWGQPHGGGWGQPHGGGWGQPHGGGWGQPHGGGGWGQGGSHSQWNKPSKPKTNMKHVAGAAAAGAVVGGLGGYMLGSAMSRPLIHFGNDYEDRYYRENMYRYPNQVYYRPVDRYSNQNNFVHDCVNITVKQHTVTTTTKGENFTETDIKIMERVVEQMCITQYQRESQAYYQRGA

Chain of non-amyloid or pre-amyloid PrP-d (P23907 25-233 limits assumed): as above
Chain of PrP-d (P23907 25-233 limits assumed): as above

Row | Compound | Binding to non-amyloid or pre-amyloid PrP-d [1] | Correlation of probe imaging with antibody binding (immunohistochemistry, AEC) (PrP-d) | PrP-d detection and visualization by probe fluorescence [2]
1 | O=C(O)c1cc(C=Cc2ccc(C=Cc3ccc(O)c(C(=O)O)c3)cc2)ccc1O [X-34, 1,4-bis(3-carboxy-4-hydroxyphenylethenyl)-benzene] | Binding | colocalization of the X34 binding and the antibody binding | 
2 | 1,4-bis(4′-hydroxystyrl)-2-methoxybenzene [Me-X04] | Binding |  | detected and visualized
